# Where “and” joins values, the source holds several entries; their conditions need not be identical. Equal values may be shown once.
# Experiments:
# [1] = tested on: A431 cells; assay: Cell uptake in live cells; assay type: cell-based; conditions: for Average values: average of wells; for Avg Radiant Efficiency: single wells
# Method: Therefore, we performed such experiments in live cells with Compound VIII compound. […] The following procedure was used:
# Cells were grown in 96 well plates to confluent level. Media was removed, cells washed with PBS, incubated for a set time (5, 15, or 30 minutes) at varying concentrations of the dye (5 μM, 10 μM, and 25 μM) in PBS. Dye was removed, cells washed twice with PBS, then PBS added for imaging.
# The values for each well were consistent with that of the control group of wells that were not exposed to the dye in wells A1-A3. The bright well at F12 is a solution of Compound VIII at 5 μM in PBS to insure imaging of the dye is occurring.
# [2] = Shortwave infrared / NIR-II imaging with SWIR camera system; assay type: physicochemical; conditions: commercial SWIR camera system
# Description: It was already shown that in the NIR-II region there is less absorption and […] enabling 2 times deeper imaging with much higher resolution respectively. […] The results are shown on FIG. 24. The camera used for obtaining the data has the following specs: “Princeton NIRvana detector, IsoPlane SCT320 spectrometer, Nikon inverted microscope, 658 nm, 785 nm and Xenon lamp/monochromator illumination sources” The other derivatives of aza-cyanine analogs covered in the current invention are currently being tested to find the optimal SWIR imaging dye.
# [3] = tested on: necrotic tissue; assay: Necrosis imaging in vivo after cardiotoxin injection; set-up: species or system mouse
# Method: Cardiotoxin (10 μM in 50 μL of PBS) was injected into the right thigh of the mouse and 50 μL of PBS was injected into the left thigh. 24 hours post-injection of toxin, Compound VIII ([…] in 100 μL PBS) was injected intravenously into the tail of the mouse. […] The results are shown below in FIG. 20-22. The brightnesses of the images are not on scale with one another. The quantification is shown on the same graph. Significant signal over-background ratios resulting from accumulation of the dye in necrosis areas observed as early as 10 min post-injection of the Compound VIII making it ideal for clinical translation.
# [4] = cited from earlier work
# [5] = in methanol, calibration standard; cited from earlier work
# [6] = tested on: sliced skin tissue of a nude mouse (dry-ice treated); assay: Ex vivo cell death assay, cryogenic tissue damage; conditions: 1 uM, 5 uM, 10 uM, 10 min at room temperature
# Method: Ex vivo cell death assay for compounds, VI and XIV were studied using a method of cryogenic tissue damage. Briefly, a bar of a dry ice was applied to sliced skin tissue of a nude mouse recently sacrificed in a petri dish for a period of 60 sec. Subsequently, the skin tissue samples were incubated with different concentrations of dye VI and XIV (1 uM, 5 uM, and 10 uM) for 10 min at room temperature.
smiles,measurement,setting,value
CN1C=CC=C2C1=N/C(=C\C=C1/C[N+](C)(C)CC(/C=C/C3=Nc4c(ccc[n+]4C)C3(C)C)=C1Cl)C2(C)C.I [Compound VIII],Average values,"[1]; 5 μM, 5 minutes",1.49E+07 [p/s/cm^2/sr]/[μW/cm^2]
same,Avg Radiant Efficiency,"[1]; 5 μM, 5 minutes",1.64E+07 [p/s/cm^2/sr]/[μW/cm^2] and 1.47E+07 [p/s/cm^2/sr]/[μW/cm^2] and 1.36E+07 [p/s/cm^2/sr]/[μW/cm^2]
same,Average values,"[1]; 5 μM, 15 minutes",1.24E+07 [p/s/cm^2/sr]/[μW/cm^2]
same,Avg Radiant Efficiency,"[1]; 5 μM, 15 minutes",1.29E+07 [p/s/cm^2/sr]/[μW/cm^2] and 1.23E+07 [p/s/cm^2/sr]/[μW/cm^2] and 1.19E+07 [p/s/cm^2/sr]/[μW/cm^2]
same,Average values,"[1]; 5 μM, 30 minutes",1.17E+07 [p/s/cm^2/sr]/[μW/cm^2]
same,Avg Radiant Efficiency,"[1]; 5 μM, 30 minutes",1.18E+07 [p/s/cm^2/sr]/[μW/cm^2] and 1.16E+07 [p/s/cm^2/sr]/[μW/cm^2] and 1.17E+07 [p/s/cm^2/sr]/[μW/cm^2]
same,Average values,"[1]; 10 μM, 5 minutes",1.39E+07 [p/s/cm^2/sr]/[μW/cm^2]
same,Avg Radiant Efficiency,"[1]; 10 μM, 5 minutes",1.50E+07 [p/s/cm^2/sr]/[μW/cm^2] and 1.39E+07 [p/s/cm^2/sr]/[μW/cm^2] and 1.28E+07 [p/s/cm^2/sr]/[μW/cm^2]
same,Average values,"[1]; 10 μM, 15 minutes",1.20E+07 [p/s/cm^2/sr]/[μW/cm^2]
same,Avg Radiant Efficiency,"[1]; 10 μM, 15 minutes",1.24E+07 [p/s/cm^2/sr]/[μW/cm^2] and 1.18E+07 [p/s/cm^2/sr]/[μW/cm^2] and 1.17E+07 [p/s/cm^2/sr]/[μW/cm^2]
same,Average values,"[1]; 10 μM, 30 minutes",1.15E+07 [p/s/cm^2/sr]/[μW/cm^2]
same,Avg Radiant Efficiency,"[1]; 10 μM, 30 minutes",1.16E+07 [p/s/cm^2/sr]/[μW/cm^2] and 1.15E+07 [p/s/cm^2/sr]/[μW/cm^2] and 1.13E+07 [p/s/cm^2/sr]/[μW/cm^2]
same,Average values,"[1]; 25 μM, 5 minutes",1.33E+07 [p/s/cm^2/sr]/[μW/cm^2]
same,Avg Radiant Efficiency,"[1]; 25 μM, 5 minutes",1.39E+07 [p/s/cm^2/sr]/[μW/cm^2] and 1.34E+07 [p/s/cm^2/sr]/[μW/cm^2] and 1.27E+07 [p/s/cm^2/sr]/[μW/cm^2]
same,Average values,"[1]; 25 μM, 15 minutes",1.20E+07 [p/s/cm^2/sr]/[μW/cm^2]
same,Avg Radiant Efficiency,"[1]; 25 μM, 15 minutes",1.22E+07 [p/s/cm^2/sr]/[μW/cm^2] and 1.20E+07 [p/s/cm^2/sr]/[μW/cm^2] and 1.19E+07 [p/s/cm^2/sr]/[μW/cm^2]
same,Average values,"[1]; 25 μM, 30 minutes",1.20E+07 [p/s/cm^2/sr]/[μW/cm^2]
same,Avg Radiant Efficiency,"[1]; 25 μM, 30 minutes",1.20E+07 [p/s/cm^2/sr]/[μW/cm^2]
same,uptake in live A431 cells,"[1]; long incubation periods (30 min), high concentrations (25 uM)",No uptake
same,radiance of wells incubated with the dye compared to that of the control,"[1]; wells B1-C10, 5-25 μM, 5-30 minutes",no significant difference
same,absorption in the NIR-II region,[2],absorbs in the NIR-II region
same,targeting of necrotic area in vivo,"[3]; cardiotoxin in right thigh, dye 40 μmoles in 100 μL PBS intravenously 24 hours later",selectively targets the necrotic area
same,clearance route,"[3]; mouse, intravenous",clears through the kidneys instead of accumulating in the liver
same,time post-injection at which significant signal over-background ratios are observed,"[3]; mouse, intravenous",10 min
"CC1(C)C(/C=C/C=C/C=C/C=C2\N(CCCCS(=O)(=O)O)c3ccc4ccccc4c3C2(C)C)=[N+](CCCCS(=O)(=O)[O-])c2ccc3ccccc3c21 [ICG, Indocyanine Green]",solubility in saline,[4],not readily soluble
same,fluorescence quantum yield (QY),[5],7.8%
CC1(C)C2=CC=CN(CCCCCC(=O)O)C2=N/C1=C/C=C1\C[N+](C)(C)CC(/C=C/C2=Nc3c(ccc[n+]3CCCCCC(=O)O)C2(C)C)=C1Cl [dye VI],fluorescence at the site of focal dry-ice treatment,[6],strong fluorescence signal
same,signal from the viable cells,[6],no signal
same,absorption in the NIR-II region,[2],absorbs in the NIR-II region
CC1(C)C2=CC=CN(CCCCCC(=O)O)C2=N/C1=C/C=C1\C[N+](C)(C)CC(/C=C/C2=Nc3c(ccc[n+]3CCCCCC(=O)O)C2(C)C)=C1Oc1ccc(S(=O)(=O)O)cc1.[Na+] [dye XIV],fluorescence at the site of focal dry-ice treatment,[6],strong accumulation of fluorescence

# Source: patent US10633542B2, “Azacyanine dyes and use thereof” (Ecole Polytechnique Fédérale de Lausanne (EPFL), priority 2018, dated 2020)
